What was measured:
A-431 = test: Antiproliferative activity against human A431 cells after 48 hrs by MTT assay; type: functional, cell-based; settings: A-431, 48 h
Histone deacetylase = test: Inhibition of HDAC derived from human HeLa cell nuclear extract using Boc-Lys(acetyl)-AMC as substrate incubated for 5 mins prior to substrate addition measured after 30 mins by fluorimetry; type: protein assay
[1] = target: Epidermal growth factor receptor (Homo sapiens, UniProt P00533); test: Inhibition of EGFR derived from human A431 cell membrane assessed as inhibition of poly-Glu-Tyr phosphorylation after 30 mins by ELISA assay; type: cell-based, A-431
A549 = test: Antiproliferative activity against human A549 cells after 48 hrs by MTT assay; type: functional, cell-based; settings: A549, 48 h
HL-60 = test: Antiproliferative activity against human HL60 cells after 48 hrs by MTT assay; type: functional, cell-based; settings: HL-60, 48 h

Sequence of Epidermal growth factor receptor (P00533 whole entry): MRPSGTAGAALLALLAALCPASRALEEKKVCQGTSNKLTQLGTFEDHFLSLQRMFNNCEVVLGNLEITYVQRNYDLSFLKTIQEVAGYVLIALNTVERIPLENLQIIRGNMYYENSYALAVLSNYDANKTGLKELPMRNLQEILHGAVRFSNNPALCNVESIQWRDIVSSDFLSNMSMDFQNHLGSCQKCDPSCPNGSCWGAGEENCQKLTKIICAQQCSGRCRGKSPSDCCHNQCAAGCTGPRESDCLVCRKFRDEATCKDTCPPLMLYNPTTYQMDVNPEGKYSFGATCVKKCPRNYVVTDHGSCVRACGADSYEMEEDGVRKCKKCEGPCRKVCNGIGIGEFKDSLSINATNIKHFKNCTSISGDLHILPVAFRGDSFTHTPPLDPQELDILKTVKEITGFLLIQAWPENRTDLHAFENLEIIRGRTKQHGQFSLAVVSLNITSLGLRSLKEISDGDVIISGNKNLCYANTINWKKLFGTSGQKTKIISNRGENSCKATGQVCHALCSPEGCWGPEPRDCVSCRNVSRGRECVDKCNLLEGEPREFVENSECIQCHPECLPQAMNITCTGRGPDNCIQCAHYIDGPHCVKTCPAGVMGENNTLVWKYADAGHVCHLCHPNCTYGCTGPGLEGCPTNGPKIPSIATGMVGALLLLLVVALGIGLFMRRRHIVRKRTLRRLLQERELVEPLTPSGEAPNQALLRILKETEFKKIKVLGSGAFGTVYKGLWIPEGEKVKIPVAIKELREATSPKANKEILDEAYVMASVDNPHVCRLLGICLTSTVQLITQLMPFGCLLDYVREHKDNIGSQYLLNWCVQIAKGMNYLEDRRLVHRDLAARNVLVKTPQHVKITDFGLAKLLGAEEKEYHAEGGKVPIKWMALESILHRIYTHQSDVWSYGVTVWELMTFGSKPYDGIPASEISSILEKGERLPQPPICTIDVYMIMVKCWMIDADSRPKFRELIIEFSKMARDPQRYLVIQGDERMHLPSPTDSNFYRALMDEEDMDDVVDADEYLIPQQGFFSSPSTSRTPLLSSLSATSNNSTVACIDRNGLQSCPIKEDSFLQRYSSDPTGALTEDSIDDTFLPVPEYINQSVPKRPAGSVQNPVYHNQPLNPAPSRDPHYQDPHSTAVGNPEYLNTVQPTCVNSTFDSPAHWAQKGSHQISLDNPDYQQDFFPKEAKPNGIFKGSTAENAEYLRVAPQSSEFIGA

| Compound | IC50 (A-431) | IC50 (Histone deacetylase) | IC50 [1] | IC50 (A549) | IC50 (HL-60) |
| --- | --- | --- | --- | --- | --- |
| O=C(CCCCCC(=O)Nc1ccc(O)c(C(=O)Nc2cccc(F)c2)c1)NO | 4.28 µM | 3.59 µM | 1410 nM | 37.2 µM | > 100 µM |
| O=C(CCCCCC(=O)Nc1ccc(O)c(C(=O)Nc2ccc(Cl)c(C(F)(F)F)c2)c1)NO | 4.14 µM | 3.48 µM | 1410 nM | 24.1 µM | > 100 µM |
| COc1cc(O)c(C(=O)Nc2ccc(F)c(Cl)c2)cc1NC(=O)CCCCCC(=O)NO | – | 1.09 µM | – | – | – |
| O=C(CCCCCC(=O)Nc1ccc(O)c(C(=O)Nc2ccc(OCc3cccc(F)c3)c(Cl)c2)c1)NO | 2.6 µM | 3.01 µM | 1100 nM | 12.4 µM | > 100 µM |
| O=C(CCCCCC(=O)Nc1ccc(O)c(C(=O)Nc2ccccc2)c1)NO | 5.85 µM | 1.89 µM | 2340 nM | 14.6 µM | 20.3 µM |
| C#Cc1cccc(NC(=O)c2cc(OCCCCCCC(=O)NO)ccc2O)c1 | 1.88 µM | 1.21 µM | 900 nM | 15.5 µM | 30.9 µM |
| O=C(CCCCCC(=O)Nc1ccc(O)c(C(=O)Nc2ccc(F)c(F)c2)c1)NO | 4.01 µM | 6.02 µM | 2220 nM | 70.1 µM | > 100 µM |
| C#Cc1cccc(NC(=O)c2cc(NC(=O)CCCCCC(=O)NO)ccc2O)c1 | 5.75 µM | 4.09 µM | 3310 nM | 76.2 µM | > 100 µM |
| O=C(CCCCCC(=O)Nc1ccc(O)c(C(=O)Nc2cccc(C(F)(F)F)c2)c1)NO | 2.75 µM | 3.19 µM | 4200 nM | 25.7 µM | > 100 µM |
| O=C(CCCCCC(=O)Nc1ccc(O)c(C(=O)Nc2ccc(F)c(Cl)c2)c1)NO | 3.48 µM | 3.02 µM | 3530 nM | 21.1 µM | > 100 µM |
| C#Cc1cccc(NC(=O)c2cc(NC(=O)CCCCCC(=O)NO)c(OC)cc2O)c1 | 4.68 µM | 1.86 µM | 1120 nM | 18.4 µM | 28.6 µM |
| C#Cc1cccc(NC(=O)c2cc(NC(=O)CCCCCCC(=O)NO)ccc2O)c1 | 6.11 µM | 2.03 µM | 2250 nM | 43.6 µM | > 100 µM |
| C#Cc1cccc(NC(=O)c2cccc(NC(=O)CCCCCC(=O)NO)c2)c1 | 7.08 µM | 3.27 µM | 6170 nM | 37.6 µM | > 100 µM |
| O=C(CCCCCC(=O)Nc1ccc(O)c(C(=O)Nc2ccc(Cl)c(Cl)c2)c1)NO | 3.8 µM | 3.65 µM | 1800 nM | 17.8 µM | > 100 µM |
| C#Cc1cccc(NC(=O)c2cc(NC(=O)CCCCCC(=O)NO)ccc2OC)c1 | 4.2 µM | 0.56 µM | 5160 nM | 40.7 µM | 7.1 µM |

Source: ChEMBL document CHEMBL2046429, “Synthesis and biological evaluation of N-aryl salicylamides with a hydroxamic acid moiety at 5-position as novel HDAC-EGFR dual inhibitors” (Bioorg Med Chem, 2012)
